From ChEMBL document CHEMBL1201862, “PubChem BioAssay data set” (2004)
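Cultured in 96-well plates, cells were exposed to test compound for 48 hours across five concentrations. Abbreviation: GI50, concentration required for 50% inhibition of growth.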 Calls of active or inactive are those of the source. No stated cut-off is given here; in the data, active = GI50 up to about 1.1 µM and inactive = higher.

Experiments:
Assay in all cases: NCI-60 cell line screen, 48 h
OVCAR-8 = system: OVCAR-8
OVCAR-5 = system: OVCAR-5
IGROV-1 = system: IGROV-1
NCI/ADR-RES = system: NCI/ADR-RES
UACC-257 = system: UACC-257
UACC-62 = system: UACC-62
NCI-H522 = system: NCI-H522
786-0 = system: 786-0
MDA-MB-231 = system: MDA-MB-231
U-251 = system: U-251
HCT-15 = system: HCT-15
SF-295 = system: SF-295
MOLT-4 = system: MOLT-4
MDA-MB-435 = system: MDA-MB-435
MDA-N = system: MDA-N
NCI-H23 = system: NCI-H23
HOP-92 = system: HOP-92
HCC 2998 = system: HCC 2998
SNB-75 = system: SNB-75
A498 = system: A498
SNB-19 = system: SNB-19
SW-620 = system: SW-620
BT-549 = system: BT-549
Malme-3M = system: Malme-3M
DU-145 = system: DU-145
SF-539 = system: SF-539
SK-MEL-5 = system: SK-MEL-5
HT-29 = system: HT-29
OVCAR-4 = system: OVCAR-4
MCF7 = system: MCF7
SK-MEL-2 = system: SK-MEL-2
Hs-578T = system: Hs-578T
COLO 205 = system: COLO 205
CCRF-CEM = system: CCRF-CEM
NCI-H226 = system: NCI-H226
ACHN = system: ACHN
RPMI-8226 = system: RPMI-8226
UO-31 = system: UO-31
OVCAR-3 = system: OVCAR-3
M14 = system: M14
SF-268 = system: SF-268
SK-OV-3 = system: SK-OV-3
EKVX = system: EKVX
HCT-116 = system: HCT-116
LOX IMVI = system: LOX IMVI
PC-3 = system: PC-3
A549 = system: A549
SN12C = system: SN12C
CAKI-1 = system: CAKI-1
TK-10 = system: TK-10
KM12 = system: KM12
T47D = system: T47D
SK-MEL-28 = system: SK-MEL-28
NCI-H460 = system: NCI-H460
K562 = system: K562
RXF 393 = system: RXF 393
HL-60 = system: HL-60
HOP-62 = system: HOP-62

## COc1ccccc1C(=O)N(C)c1ccc(Cl)c(C(=O)OC(C)C)c1
OVCAR-8
  GI50: > 100 µM (inactive)
OVCAR-5
  GI50: > 100 µM (inactive)
IGROV-1
  GI50: > 100 µM (inactive)
NCI/ADR-RES
  GI50: 52.1 µM (inactive)
UACC-257
  GI50: 23.1 µM (inactive)
UACC-62
  GI50: 48.8 µM (inactive)
NCI-H522
  GI50: 39.5 µM (inactive)
786-0
  GI50: 36.2 µM (inactive)
MDA-MB-231
  GI50: > 100 µM (inactive)
U-251
  GI50: 67.8 µM (inactive)
HCT-15
  GI50: 39.5 µM
SF-295
  GI50: 30.6 µM (inactive)
MOLT-4
  GI50: 39.7 µM (inactive)
MDA-MB-435
  GI50: 29.4 µM (inactive)
MDA-N
  GI50: 40.8 µM (inactive)
NCI-H23
  GI50: 49.2 µM (inactive)
HOP-92
  GI50: 48.2 µM (inactive)
HCC 2998
  GI50: 27 µM (inactive)
SNB-75
  GI50: 30.7 µM (inactive)
A498
  GI50: 70.6 µM (inactive)
SNB-19
  GI50: > 100 µM (inactive)
SW-620
  GI50: 46.6 µM (inactive)
BT-549
  GI50: 33 µM (inactive)
Malme-3M
  GI50: > 100 µM (inactive)
DU-145
  GI50: 42.5 µM (inactive)
SF-539
  GI50: > 100 µM (inactive)
SK-MEL-5
  GI50: 22.8 µM (inactive)
HT-29
  GI50: > 100 µM (inactive)
OVCAR-4
  GI50: 35.6 µM (inactive)
MCF7
  GI50: 62.4 µM (inactive)
SK-MEL-2
  GI50: 61.5 µM (inactive)
Hs-578T
  GI50: > 100 µM (inactive)
COLO 205
  GI50: 42.9 µM (inactive)
CCRF-CEM
  GI50: > 100 µM (inactive)
NCI-H226
  GI50: > 100 µM (inactive)
ACHN
  GI50: 84.9 µM (inactive)
RPMI-8226
  GI50: 39.4 µM (inactive)
UO-31
  GI50: 28.7 µM (inactive)
OVCAR-3
  GI50: 71.3 µM (inactive)
M14
  GI50: 68.9 µM (inactive)
SF-268
  GI50: 95.9 µM (inactive)
SK-OV-3
  GI50: 45.5 µM (inactive)
EKVX
  GI50: 44.2 µM (inactive)
HCT-116
  GI50: 40.3 µM (inactive)
LOX IMVI
  GI50: 87.3 µM (inactive)
PC-3
  GI50: 31.8 µM (inactive)
A549
  GI50: 49.9 µM (inactive)
SN12C
  GI50: > 100 µM (inactive)
CAKI-1
  GI50: > 100 µM (inactive)
TK-10
  GI50: 34 µM (inactive)
KM12
  GI50: 23.3 µM (inactive)
T47D
  GI50: 23.8 µM (inactive)
SK-MEL-28
  GI50: 49.7 µM (inactive)
NCI-H460
  GI50: 42 µM (inactive)

## CC1(C)CN(c2ccccc2)C(=O)C1OC(=O)[C@@]1(C)C[C@@H]2C=C[C@H]1C2 (stereo not given in full)
OVCAR-8
  GI50: 32.2 µM (inactive)
OVCAR-5
  GI50: 28.1 µM (inactive)
IGROV-1
  GI50: 16.9 µM (inactive)
NCI/ADR-RES
  GI50: 23 µM (inactive)
UACC-257
  GI50: 24.5 µM (inactive)
UACC-62
  GI50: 18 µM (inactive)
786-0
  GI50: 21.8 µM (inactive)
MDA-MB-231
  GI50: 24.5 µM (inactive)
U-251
  GI50: 19.2 µM (inactive)
K562
  GI50: 6.15 µM (inactive)
HCT-15
  GI50: 22.1 µM
SF-295
  GI50: 24.5 µM (inactive)
MOLT-4
  GI50: 38.2 µM (inactive)
MDA-MB-435
  GI50: 20.2 µM (inactive)
MDA-N
  GI50: 18.7 µM (inactive)
NCI-H23
  GI50: 25.2 µM (inactive)
HOP-92
  GI50: 27.9 µM (inactive)
SNB-75
  GI50: 34.3 µM (inactive)
A498
  GI50: 23.8 µM (inactive)
SNB-19
  GI50: 28.8 µM (inactive)
SW-620
  GI50: 33.3 µM (inactive)
BT-549
  GI50: 33.9 µM (inactive)
Malme-3M
  GI50: 10.9 µM (inactive)
DU-145
  GI50: 87.5 µM (inactive)
SF-539
  GI50: 23.4 µM (inactive)
RXF 393
  GI50: 17.9 µM (inactive)
SK-MEL-5
  GI50: 14.9 µM (inactive)
HT-29
  GI50: 12.5 µM (inactive)
OVCAR-4
  GI50: 18.1 µM (inactive)
MCF7
  GI50: 24.4 µM (inactive)
SK-MEL-2
  GI50: 17.8 µM (inactive)
Hs-578T
  GI50: 31 µM (inactive)
COLO 205
  GI50: 19.1 µM (inactive)
CCRF-CEM
  GI50: 23.3 µM (inactive)
NCI-H226
  GI50: 23.3 µM (inactive)
HL-60
  GI50: 20.3 µM (inactive)
ACHN
  GI50: 34.5 µM (inactive)
HOP-62
  GI50: 22.4 µM (inactive)
RPMI-8226
  GI50: 12.3 µM (inactive)
UO-31
  GI50: 13.7 µM (inactive)
OVCAR-3
  GI50: 39.4 µM (inactive)
M14
  GI50: 22 µM (inactive)
SF-268
  GI50: 27.5 µM (inactive)
SK-OV-3
  GI50: 35.1 µM (inactive)
EKVX
  GI50: 28.4 µM (inactive)
HCT-116
  GI50: 19.5 µM (inactive)
LOX IMVI
  GI50: 18.9 µM (inactive)
PC-3
  GI50: 30 µM (inactive)
A549
  GI50: 29.6 µM (inactive)
SN12C
  GI50: 21.3 µM (inactive)
CAKI-1
  GI50: 26.5 µM (inactive)
TK-10
  GI50: 30.7 µM (inactive)
KM12
  GI50: 21.7 µM (inactive)
T47D
  GI50: 32.7 µM (inactive)
SK-MEL-28
  GI50: 18.1 µM (inactive)
NCI-H460
  GI50: 23 µM (inactive)
